Laboratory results taken from PubChem BioAssay AID2060341 (Molecular Pharmacology Branch, DTP, NCI, 2025).

Test system: 327498-153-R-J2-PDC multicell spheroid viability
Test: Anticancer human tumor 327498-153-R-J2-PDC patient-derived uterine carcinosarcoma cell line growth inhibition [IpAb]
Details: for IC50: curve of first compound; for viability, T/C: stronger effect = lower value
Outline: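 Multi-cell spheroids of 60% tumour cells, 25% HUVEC and 15% MSC in ultra-low-attachment U-bottom wells, treated with agents combined with ipatasertib or abemaciclib. Half-log ranges top out near clinical Cmax, or 10 microM when Cmax is unknown.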

[1] = second compound 0.01 µM, first compound 0.0316 µM
[2] = second compound 0.01 µM, first compound 0.1 µM
[3] = second compound 0.01 µM, first compound 0.316 µM
[4] = second compound 0.01 µM, first compound 1 µM
[5] = second compound 0.01 µM, first compound 3.16 µM
[6] = second compound 0.01 µM, first compound 10 µM
[7] = second compound 0.0316 µM, first compound 0.0316 µM
[8] = second compound 0.0316 µM, first compound 0.1 µM
[9] = second compound 0.0316 µM, first compound 0.316 µM
[10] = second compound 0.0316 µM, first compound 1 µM
[11] = second compound 0.0316 µM, first compound 3.16 µM
[12] = second compound 0.0316 µM, first compound 10 µM
[13] = second compound 0.1 µM, first compound 0.0316 µM
[14] = second compound 0.1 µM, first compound 0.1 µM
[15] = second compound 0.1 µM, first compound 0.316 µM
[16] = second compound 0.1 µM, first compound 1 µM
[17] = second compound 0.1 µM, first compound 3.16 µM
[18] = second compound 0.1 µM, first compound 10 µM
[19] = second compound 0.316 µM, first compound 0.0316 µM
[20] = second compound 0.316 µM, first compound 0.1 µM
[21] = second compound 0.316 µM, first compound 0.316 µM
[22] = second compound 0.316 µM, first compound 1 µM
[23] = second compound 0.316 µM, first compound 3.16 µM
[24] = second compound 0.316 µM, first compound 10 µM
[25] = second compound 1 µM, first compound 0.0316 µM
[26] = second compound 1 µM, first compound 0.1 µM
[27] = second compound 1 µM, first compound 0.316 µM
[28] = second compound 1 µM, first compound 1 µM
[29] = second compound 1 µM, first compound 3.16 µM
[30] = second compound 1 µM, first compound 10 µM
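Further: spheroids exposed to agents for 7 days.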
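Wherever viability, T/C is given: 100% = DMSO vehicle control viability.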

Question: `C=CC(=O)N1CCN(c2nc(=O)n(-c3c(C)ccnc3C(C)C)c3nc(-c4c(O)cccc4F)c(F)cc23)C(C)C1` (stereo not given) + CCN1CCN(Cc2ccc(Nc3ncc(F)c(-c4cc(F)c5nc(C)n(C(C)C)c5c4)n3)nc2)CC1 was tested. Which IC50 (second compound 0.01 µM) did it give?
Answer: 209 nM

Question: What about the IC50 (second compound 0.0316 µM) of the same compound?
Answer: < 31.6 nM

Question: What about the IC50 (second compound 0.1 µM) of the same compound?
Answer: < 31.6 nM

Question: What about the IC50 (second compound 0.316 µM) of the same compound?
Answer: < 31.6 nM

Question: What about the IC50 (second compound 1 µM) of the same compound?
Answer: < 31.6 nM

Question: What about the viability, T/C [1] of the same compound?
Answer: 63.7%

Question: And the viability, T/C [2]?
Answer: 52.8%

Question: And the viability, T/C [3]?
Answer: 49%

Question: And the viability, T/C [4]?
Answer: 44.5%

Question: What about the viability, T/C [5] of the same compound?
Answer: 43%

Question: And the viability, T/C [6]?
Answer: 42.2%

Question: What about the viability, T/C [7] of the same compound?
Answer: 50.3%

Question: And the viability, T/C [8]?
Answer: 42.7%

Question: And the viability, T/C [9]?
Answer: 40%

Question: And the viability, T/C [10]?
Answer: 41.5%

Question: What about the viability, T/C [11] of the same compound?
Answer: 38%

Question: And the viability, T/C [12]?
Answer: 38.4%

Question: And the viability, T/C [13]?
Answer: 42.5%

Question: And the viability, T/C [14]?
Answer: 38.1%

Question: And the viability, T/C [15]?
Answer: 36.9%

Question: What about the viability, T/C [16] of the same compound?
Answer: 30.7%

Question: And the viability, T/C [17]?
Answer: 38.6%

Question: And the viability, T/C [18]?
Answer: 35.5%

Question: What about the viability, T/C [19] of the same compound?
Answer: 35.7%

Question: What about the viability, T/C [20] of the same compound?
Answer: 33.2%

Question: And the viability, T/C [21]?
Answer: 31.5%

Question: What about the viability, T/C [22] of the same compound?
Answer: 32.8%

Question: What about the viability, T/C [23] of the same compound?
Answer: 36.5%

Question: What about the viability, T/C [24] of the same compound?
Answer: 36.8%

Question: And the viability, T/C [25]?
Answer: 37%

Question: What about the viability, T/C [26] of the same compound?
Answer: 36.5%

Question: And the viability, T/C [27]?
Answer: 29.1%

Question: And the viability, T/C [28]?
Answer: 35.5%

Question: What about the viability, T/C [29] of the same compound?
Answer: 38.1%

Question: What about the viability, T/C [30] of the same compound?
Answer: 44.1%

Question: Which results are given for `Cn1ncc(Cl)c1-c1cc(C(=O)NC(CN)Cc2cccc(F)c2)sc1Cl` (stereo not given) + CCN1CCN(Cc2ccc(Nc3ncc(F)c(-c4cc(F)c5nc(C)n(C(C)C)c5c4)n3)nc2)CC1?
Answer: IC50 (second compound 0.01 µM): 312 nM; IC50 (second compound 0.0316 µM): 125 nM; IC50 (second compound 0.1 µM): 50.1 nM; IC50 (second compound 0.316 µM): < 31.6 nM; IC50 (second compound 1 µM): 64.4 nM; viability, T/C [1]: 78%; viability, T/C [2]: 60.3%; viability, T/C [3]: 48.7%; viability, T/C [4]: 35.4%; viability, T/C [5]: 24.5%; viability, T/C [6]: 0.14%; viability, T/C [7]: 64.5%; viability, T/C [8]: 49%; viability, T/C [9]: 40.5%; viability, T/C [10]: 27.9%; viability, T/C [11]: 24%; viability, T/C [12]: 0.12%; viability, T/C [13]: 53.4%; viability, T/C [14]: 46.2%; viability, T/C [15]: 34.4%; viability, T/C [16]: 28.1%; viability, T/C [17]: 21.1%; viability, T/C [18]: 0.12%; viability, T/C [19]: 48.9%; viability, T/C [20]: 44.5%; viability, T/C [21]: 33.9%; viability, T/C [22]: 28.9%; viability, T/C [23]: 20.6%; viability, T/C [24]: 0.14%; viability, T/C [25]: 54.1%; viability, T/C [26]: 49.1%; viability, T/C [27]: 34.9%; viability, T/C [28]: 29.9%; viability, T/C [29]: 21.7%; viability, T/C [30]: 0.2%

Question: With `Cn1ncnc1[C@H]1c2n[nH]c(=O)c3cc(F)cc(c23)N[C@@H]1c1ccc(F)cc1` + CCN1CCN(Cc2ccc(Nc3ncc(F)c(-c4cc(F)c5nc(C)n(C(C)C)c5c4)n3)nc2)CC1 as the compound, how does the IC50 (second compound 0.01 µM) read?
Answer: 18.6 nM

Question: What about the IC50 (second compound 0.0316 µM) of the same compound?
Answer: 12.1 nM

Question: And the IC50 (second compound 0.1 µM)?
Answer: 5.76 nM

Question: And the IC50 (second compound 0.316 µM)?
Answer: 2.84 nM

Question: And the IC50 (second compound 1 µM)?
Answer: 3.84 nM

Question: And the viability, T/C (second compound 0.01 µM, first compound 0.000316 µM)?
Answer: 96%

Question: And the viability, T/C (second compound 0.01 µM, first compound 0.001 µM)?
Answer: 87.3%

Question: And the viability, T/C (second compound 0.01 µM, first compound 0.00316 µM)?
Answer: 85.3%

Question: What about the viability, T/C (second compound 0.01 µM, first compound 0.01 µM) of the same compound?
Answer: 58.1%

Question: What about the viability, T/C [1] of the same compound?
Answer: 42.3%

Question: And the viability, T/C [2]?
Answer: 25.2%

Question: What about the viability, T/C (second compound 0.0316 µM, first compound 0.000316 µM) of the same compound?
Answer: 74.8%

Question: What about the viability, T/C (second compound 0.0316 µM, first compound 0.001 µM) of the same compound?
Answer: 70%

Question: And the viability, T/C (second compound 0.0316 µM, first compound 0.00316 µM)?
Answer: 63.3%

Question: What about the viability, T/C (second compound 0.0316 µM, first compound 0.01 µM) of the same compound?
Answer: 50.3%

Question: And the viability, T/C [7]?
Answer: 41.2%

Question: What about the viability, T/C [8] of the same compound?
Answer: 28.2%

Question: What about the viability, T/C (second compound 0.1 µM, first compound 0.000316 µM) of the same compound?
Answer: 68.3%

Question: What about the viability, T/C (second compound 0.1 µM, first compound 0.001 µM) of the same compound?
Answer: 56.6%

Question: What about the viability, T/C (second compound 0.1 µM, first compound 0.00316 µM) of the same compound?
Answer: 54.7%

Question: And the viability, T/C (second compound 0.1 µM, first compound 0.01 µM)?
Answer: 47.2%

Question: What about the viability, T/C [13] of the same compound?
Answer: 39.6%

Question: What about the viability, T/C [14] of the same compound?
Answer: 28.9%

Question: What about the viability, T/C (second compound 0.316 µM, first compound 0.000316 µM) of the same compound?
Answer: 59%

Question: And the viability, T/C (second compound 0.316 µM, first compound 0.001 µM)?
Answer: 54%

Question: What about the viability, T/C (second compound 0.316 µM, first compound 0.00316 µM) of the same compound?
Answer: 49.3%

Question: What about the viability, T/C (second compound 0.316 µM, first compound 0.01 µM) of the same compound?
Answer: 44.8%

Question: And the viability, T/C [19]?
Answer: 38.2%

Question: And the viability, T/C [20]?
Answer: 32.5%

Question: And the viability, T/C (second compound 1 µM, first compound 0.000316 µM)?
Answer: 62.2%

Question: And the viability, T/C (second compound 1 µM, first compound 0.001 µM)?
Answer: 53.9%

Question: What about the viability, T/C (second compound 1 µM, first compound 0.00316 µM) of the same compound?
Answer: 51.4%

Question: And the viability, T/C (second compound 1 µM, first compound 0.01 µM)?
Answer: 45.1%

Question: What about the viability, T/C [25] of the same compound?
Answer: 40.8%

Question: What about the viability, T/C [26] of the same compound?
Answer: 31.6%
